Assay results from patent publication US9980967B1, “Method for overcoming drug resistance of EGFR mutation and cancerous stemness of human non-small cell lung carcinoma” (NATIONAL CHIAO TUNG UNIVERSITY, priority 2017, dated 2018).

Key:
Assay type in all cases: cell-based, human
[1] = tested on: H1975 cells with EGFR (T790M) mutation; assay: MTT cell viability assay in H1975 cells; conditions: 0~40 μM for 24 hours, re-cultured 2 days, compared with Gefitinib
Text: (§1) A549 (ATCC number: CCL-185) was a non-small cell lung carcinoma cell line which expressed wild type EGFR and with K-Ras mutation (G12S). H1975 (ATCC number: CRL-5908) was a non-small cell lung carcinoma cell line which expressed EGFR L858R/T790M mutation. Oct4 and Nanog overexpression in A549-ON presented the properties of cancer stem-like cells, as well as epithelial-mesenchymal transdifferentiation. PLC26 was lung cancer cells that separated from pleural effusion of a clinical lung cancer patient (IRB number: 103-011-E). A549-ON cells were cultured in DMEM medium. A549 and H1975 cells were maintained in RPMI-1640 medium. PLC26 cells were maintained in LHC-9 medium. DMEM and RPMI medium were supplemented with 10% fetal bovine serum (FBS), 100 units/ml penicillin, 100 μg/ml streptomycin and sodium bicarbonate. LHC-9 medium was supplemented with 5% FBS and 100 units/ml penicillin. These cells were cultured at 37° C. and 5% CO2 in a humidified incubator.
(§2) Please refer to FIG. 2. The H1975 cells were treated with 0˜40 μM of SP101 or Gefitinib for 24 hours. After treatment, the H1975 cells were re-cultured in fresh medium for 2 days. The cell viability was analyzed by MTT assays. The results were obtained from three independent experiments and the var represents the mean±S.E.M. ***p<0.001 indicates significant difference between Gefitinib and SP101 treated samples.

[2] = tested on: Survivin and cleaved-form Caspase 3 in H1975 cells; assay: Western blot and immunofluorescence of Survivin and cleaved Caspase 3 in H1975 cells
Text: (§3) FIG. 5 is a result of immunofluorescence staining and confocal microscopy. The green color indicated location of Survivin protein excited with 488 nm. The β-tubulin protein was stained with Cy3-labeled mouse anti-β-tubulin antibody (red color). The fluorescence intensity of β-tubulin was excited with 543 nm and the emission was collected in range of 560-580 nm. Blue color indicated location of nuclei following stained with Hoechst 33258 and was excited with 405 nm and the emission was collected in range of 415-450 nm. Overlapping localization is shown in the merged images.
as §3, with “FIG. 6” for “FIG. 5”, “of cleaved Caspase 3” for “of Survivin”
Reduction of Survivin protein expression has shown to inhibit tumor growth in NSCLC. Please refer to FIG. 4. H1975 cells with EGFR (T790M) mutation were treated with or without SP101 (20˜30 μM for 24 hours) and analyzed by Western blot. […] Actin was an internal control protein.
Further, immunofluorescence staining and confocal microscopy were utilized to determine the expression and cell morphology of Survivin and cleaved-form Caspase 3 after treatment with SP101 in H1975 cells with EGFR (T790M) mutation. The cells were treated with or without 30 μM of SP101 for 24 hours. At the end of treatment, the cells were fixed with 4% paraformaldehyde at 37 °C for 1 hour. The fixed cells were incubated with rabbit anti-Survivin antibody or rabbit anti-cleaved caspase-3 antibody at 4 °C overnight. Then the cells were stained with goat anti-rabbit IgG Dylight 488 at 37 °C for 1 hour. Please refer to FIGS. 5 and 6. The green fluorescence (Dylight 488) indicated location of Survivin and cleaved-form Caspase 3. The blue fluorescence (Hoechst 33258) and red fluorescence (Cy3) represented nucleus and β-tubulin respectively. Treatment with 30 μM SP101 for 24 hours, Survivin protein expression was reduced; in addition, the apoptotic bodies and cleaved-form Caspase 3 protein were induced.

A549-ON cells = assay: MTT cell viability assay in A549-ON cells; conditions: 10~40 μM for 24 hours, concentration-dependent
Description: as §2, with “After” for “Please refer to FIG. 2. The H1975 cells were treated with 0˜40 μM of SP101 or Gefitinib for 24 hours. After”, “the” for “the H1975”, “bar” for “var”
as §1, with “PLC26 cells were maintained in LHC-9 medium. DMEM and RPMI medium were supplemented with 10% fetal bovine serum (FBS), 100 units/ml penicillin, 100 μg/ml streptomycin and sodium bicarbonate. LHC-9 medium was supplemented with 5% FBS and 100 units/ml penicillin. These cells were cultured at 37° C. and 5% CO2 in a humidified incubator.” left out
Please refer to FIG. 12. […] To compare the cell viability of SP101 and Gefitinib in K-Ras mutation-drug resistant A549 and A549-ON cell lines, the cells were treated with 0˜40 μM SP101 or Gefitinib for 24 hours, and analyzed by MTT assays. […] To determine the effect of SP101 and Gefitinib on the cell viability in cancer stem-like A549-ON cells, the cells were treated with 10˜40 μM SP101 or Gefitinib for 24 hours, and analyzed by MTT assays.

PLC26 cells = assay: MTT cell viability assay in PLC26 cells; conditions: 0~40 μM for 24 hours, compared with Gefitinib
Description: After treatment, the cells were re-cultured in fresh medium for 2 days. The cell viability was analyzed by MTT assays. The results were obtained from three independent experiments and the bar represents the mean±S.E.M. ***p<0.001 indicates significant difference between gefitinib and SP101 treated samples.
as §1, with “DMEM and RPMI medium were supplemented with 10% fetal bovine serum (FBS), 100 units/ml penicillin, 100 μg/ml streptomycin and sodium bicarbonate. LHC-9 medium was supplemented with 5% FBS and 100 units/ml penicillin. These cells were cultured at 37° C. and 5% CO2 in a humidified incubator.” left out
We have further investigated the effect of SP101 in PLC26 lung cancer cells separated from the pleural effusion of a clinical lung cancer patient. To compare the cell viability of SP101 and Gefitinib in PLC26 cells, the cells were treated with 0˜40 μM SP101 or Gefitinib for 24 hours, and analyzed by MTT assays. […] The apoptosis levels of SP101 in PLC26 cells were analyzed by Annexin V and PI staining. […]

[3] = 30 μM for 24 hours, immunofluorescence and confocal microscopy
[4] = 20~30 μM for 24 hours, Western blot

For `CCCCCCCCCCCCOC(=O)CCC(=O)N1CCN(CCCOc2cc3c(Nc4ccc(F)c(Cl)c4)ncnc3cc2OC)CC1` [SP101, dodecyl 4-(4-(3-(4-(3-chloro-4-fluorophenylamino)-7-methoxyquinazolin-6-yloxy)propyl)piperazin-1-yl)-4-oxobutanoate], the cell viability inhibition [1] was “significantly higher in the SP101 group than in the Gefitinib group”, the Survivin protein expression [2, 3] was “reduced” and the “apoptotic bodies and cleaved-form Caspase 3 protein” value [2, 3] was “induced”. For the same molecule, the Survivin protein level [2, 4] was “reduced”, the “apoptotic protein level of cleaved-form Caspase 3” value [2, 4] was “induced” and the cell viability (A549-ON cells) was “significantly reduced”. For the same molecule, the “reduction of cell viability” value (PLC26 cells) was “more effective on the reduction of cell viability than Gefitinib”.
